Source: US8916567B2, “Certain crystalline hydrates, pharmaceutical compositions thereof and methods for preparation and use thereof” (Universal Technology Alliance, Inc., priority 2009, dated 2014)

How the values were obtained:
[1] = Stability under high temperature and high humidity (relative humidity 75%, 40° C.); assay type: physicochemical; conditions: for Related substances (%): by HPLC; for Related substances (%) / TGA (%): hydrate; for TGA (%): water content by TGA
Summary of the method: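 Crystalline hydrates were held in a desiccator at 75% RH and 40 °C and sampled at 1, 2, 3 and 6 months. Related substances, meaning all components other than the active, were measured by HPLC per the Chinese Pharmacopeia (2005).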

[2] = tested on: E. feacium; assay: Minimum inhibitory concentration (MIC) in vitro, agar dilution method; assay type: cell-based; conditions: hydrate
Summary of the method: (§1)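 MIC50, MIC90, MIC range and individual MICs derive from CLSI/NCCLS agar dilution testing of 2007-2008 clinical isolates from Sichuan and Beijing. Samples were prepared in DMSO with further dilution in sterile water; vancomycin and linezolid served as reference drugs.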

[3] = tested on: S. epidermidis MSSE; assay: as above; assay type: cell-based; conditions: hydrate
Summary of the method: as §1

[4] = tested on: Staphylococcus aureus MSSA; assay: as above; assay type: cell-based; conditions: hydrate
Summary of the method: as §1

[5] = tested on: Staphylococcus aureus MRSA; assay: as above; assay type: cell-based; conditions: hydrate
Summary of the method: as §1

[6] = tested on: S. epidermidis MRSE; assay: as above; assay type: cell-based; conditions: hydrate
Summary of the method: as §1

[7] = tested on: E. feacalis; assay: as above; assay type: cell-based; conditions: hydrate
Summary of the method: as §1

[8] = tested on: Staphylococcus aureus; assay: Minimum inhibitory concentration (MIC) in vitro, agar dilution method, quality control strain; assay type: cell-based; conditions: strain S. AT C C25923 (Table 7 No. 1); hydrate
Summary of the method: as §1

[9] = E. feacium (5 strains), clinically isolated
[10] = S. ep MSSE (10 strains), clinically isolated
[11] = S. MSSA (11 strains), clinically isolated
[12] = S. MRSA (10 strains), clinically isolated
[13] = S. ep MRSE (10 strains), clinically isolated
[14] = E. feacalis (5 strains), clinically isolated

**Q.** Which results are given for CC(=O)NC[C@H]1CN(c2ccc(N3CCN(c4ccccc4)CC3)c(F)c2)C(=O)O1 [⅖ hydrate, (S)—[N-3-(3′-fluoro-4′-(4″-phenylpiperazinyl))phenyl-2-oxo-5-oxazolidinyl]methyl acetamide 2/5 hydrate]?
**A.** Characters ([1]; 0 month): White powder; Characters ([1]; 1 month): White powder; Characters ([1]; 2 months): White powder; Characters ([1]; 3 months): White powder; Characters ([1]; 6 months): White powder; Related substances (%) ([1]; 0 month): 0.93%; Related substances (%) ([1]; 1 month): 0.89%; Related substances (%) ([1]; 2 months): 0.91%; Related substances (%) ([1]; 3 months): 0.93%; Related substances (%) ([1]; 6 months): 0.92%; TGA (%) ([1]; 0 month): 1.71%; TGA (%) ([1]; 1 month): 1.73%; TGA (%) ([1]; 2 months): 1.70%; TGA (%) ([1]; 3 months): 1.72%; TGA (%) ([1]; 6 months): 1.72%; MIC50 [2, 9]: 1 µg/mL; MIC90 [2, 9]: 1 µg/mL; MICrange [2, 9]: 0.5 to 1 µg/mL; MIC ([2]; strain Efm 98 (Table 8 No. 21)): 0.5 µg/mL; MIC ([2]; strain Efm 171 (Table 8 No. 25)): 0.5 µg/mL; MIC ([2]; strain Efm 197 (Table 8 No. 22)): 1 µg/mL; MIC ([2]; strain Efm N3 (Table 8 No. 23)): 1 µg/mL; MIC ([2]; strain Efm N4 (Table 8 No. 24)): 1 µg/mL; MIC50 [3, 10]: 0.5 µg/mL; MIC90 [3, 10]: 0.5 µg/mL; MICrange [3, 10]: 0.125 to 0.5 µg/mL; MIC ([3]; strain S. ep MSSE87 (Table 7 No. 23)): 0.125 µg/mL; MIC ([3]; strain S. ep MSSE88 (Table 8 No. 5)): 0.5 µg/mL; MIC ([3]; strain S. ep MSSE113 (Table 7 No. 24)): 0.5 µg/mL; MIC ([3]; strain S. ep MSSE116 (Table 7 No. 25)): 0.5 µg/mL; MIC ([3]; strain S. ep MSSE118 (Table 8 No. 2)): 0.5 µg/mL; MIC ([3]; strain S. ep MSSE119 (Table 7 No. 27)): 0.125 µg/mL; MIC ([3]; strain S. ep MSSE137 (Table 8 No. 4)): 0.5 µg/mL; MIC ([3]; strain S. ep MSSE140 (Table 8 No. 3)): 0.5 µg/mL; MIC ([3]; strain S. ep MSSE142 (Table 7 No. 26)): 0.25 µg/mL; MIC ([3]; strain S. ep MSSE153 (Table 8 No. 1)): 0.5 µg/mL; MIC50 [4, 11]: 0.5 µg/mL; MIC90 [4, 11]: 0.5 µg/mL; MICrange [4, 11]: 0.5 to 1 µg/mL; MIC ([4]; strain S. MSSA 123 (Table 7 No. 3)): 0.5 µg/mL; MIC ([4]; strain S. MSSA 187 (Table 7 No. 7)): 0.5 µg/mL; MIC ([4]; strain S. MSSA 195 (Table 7 No. 6)): 1 µg/mL; MIC ([4]; strain S. MSSA 195 (Table 7 No. 12)): 0.5 µg/mL; MIC ([4]; strain S. MSSA 201 (Table 7 No. 11)): 0.5 µg/mL; MIC ([4]; strain S. MSSA 232 (Table 7 No. 2)): 0.5 µg/mL; MIC ([4]; strain S. MSSA 275 (Table 7 No. 10)): 0.5 µg/mL; MIC ([4]; strain S. MSSA 466 (Table 7 No. 8)): 0.5 µg/mL; MIC ([4]; strain S. MSSA 519 (Table 7 No. 9)): 0.5 µg/mL; MIC ([4]; strain S. MSSA 520 (Table 7 No. 4)): 0.5 µg/mL; MIC ([4]; strain S. MSSA 580 (Table 7 No. 5)): 0.5 µg/mL; MIC50 [5, 12]: 1 µg/mL; MIC90 [5, 12]: 0.5 µg/mL; MICrange [5, 12]: 0.25 to 0.5 µg/mL; MIC ([5]; strain S. MRSA 29 (Table 7 No. 15)): 0.5 µg/mL; MIC ([5]; strain S. MRSA 101 (Table 7 No. 14)): 0.5 µg/mL; MIC ([5]; strain S. MRSA 201 (Table 7 No. 13)): 0.5 µg/mL; MIC ([5]; strain S. MRSA B27 (Table 7 No. 21)): 0.5 µg/mL; MIC ([5]; strain S. MRSA B105 (Table 7 No. 17)): 0.5 µg/mL; MIC ([5]; strain S. MRSA B143 (Table 7 No. 19)): 0.5 µg/mL; MIC ([5]; strain S. MRSA B151 (Table 7 No. 20)): 0.25 µg/mL; MIC ([5]; strain S. MRSA B164 (Table 7 No. 16)): 0.5 µg/mL; MIC ([5]; strain S. MRSA B199 (Table 7 No. 22)): 0.5 µg/mL; MIC ([5]; strain S. MRSA B617 (Table 7 No. 18)): 0.5 µg/mL; MIC50 [6, 13]: 0.5 µg/mL; MIC90 [6, 13]: 0.5 µg/mL; MICrange [6, 13]: 0.125 to 0.5 µg/mL; MIC ([6]; strain S. ep MRSE4 (Table 8 No. 9)): 0.5 µg/mL; MIC ([6]; strain S. ep MRSE20 (Table 8 No. 6)): 0.5 µg/mL; MIC ([6]; strain S. ep MRSE87 (Table 8 No. 13)): 0.5 µg/mL; MIC ([6]; strain S. ep MRSE90 (Table 8 No. 10)): 0.5 µg/mL; MIC ([6]; strain S. ep MRSE101 (Table 8 No. 7)): 0.125 µg/mL; MIC ([6]; strain S. ep MRSE105 (Table 8 No. 11)): 0.5 µg/mL; MIC ([6]; strain S. ep MRSE140 (Table 8 No. 14)): 0.5 µg/mL; MIC ([6]; strain S. ep MRSE142 (Table 8 No. 12)): 0.5 µg/mL; MIC ([6]; strain S. ep MRSE210 (Table 8 No. 15)): 0.5 µg/mL; MIC ([6]; strain S. ep MRSE211 (Table 8 No. 8)): 0.5 µg/mL; MIC50 [7, 14]: 0.5 µg/mL; MIC90 [7, 14]: 0.5 µg/mL; MICrange [7, 14]: 0.125 to 0.5 µg/mL; MIC ([7]; strain Efa 116 (Table 8 No. 16)): 0.5 µg/mL; MIC ([7]; strain Efa 907 (Table 8 No. 19)): 0.5 µg/mL; MIC ([7]; strain Efa 3006 (Table 8 No. 18)): 0.25 µg/mL; MIC ([7]; strain Efa 33748 (Table 8 No. 17)): 0.5 µg/mL; MIC [8]: 0.5 µg/mL
